The values that follow come from patent US9493833B1, “Methods for preventing induced synthesis of proteasomes in human cells” (THE REGENTS OF THE UNIVERSITY OF CALIFORNIA, priority 2009, dated 2016).

The subject of data set [1] is anti-oxidant response elements (8×AREs). Briefly: 8×ARE-SV40-Luc luciferase reporter assay in LNCaP cells. In kind it is cell-based, human. Conditions: TSA or SAHA added with MG132, 16 hours. The protocol:
TSA and SAHA were assayed using a luciferase reporter construct. The luciferase reporter was driven by a promoter harboring multimerized anti-oxidant response elements (8×AREs) and was transfected into LNCaP cells.
(§1) LNCaP cells were subjected to treatment with one of MG132 (1 μM), TSA (1 μM), SAHA (5 μM), MG132 (1 μM)+TSA (1 μM), or MG132 (1 μM)+SAHA (1 μM) for 10 hrs and the RNA from these cells was used for quantitative RT-PCR to assess the mRNA levels of representative PSM genes (FIG. 5A). The values were normalized to GAPDH and the DMSO-treated sample was set to 1. A representative experiment performed in duplicates is shown. MDA-MB-231 cells were treated with different agents at the same concentrations as above (except MG132 which was used at 5 μM) for 48 hrs after which the cells were used for cell-titer glo assay to assess cell viability. Data from an experiment performed in quadruplicates is shown (FIG. 5B). LNCaP cells transfected with 8×ARE-SV40-Luc construct alone (control) or co-transfected with Flag-Nrf1 were further treated with different agents as indicated (FIG. 10). pRL-TK renilla luciferase expression construct was used as a transfection control for normalization. Sixteen hours later, the cells were harvested and used for Luciferase assay.
(§2) Cells were transiently transfected with the firefly (promoter reporters) and renilla luciferase (pRL-TK; Promega) constructs along with effector plasmid as required. After harvesting the cells, luciferase assays were performed using the Dual Luciferase reporter assay system (E1910; Promega) according to the instructions from the manufacturer. The firefly luciferase activity was normalized to renilla luciferase activity for all experiments.

The next data set relates to PSM genes. Briefly: PSM gene mRNA by quantitative RT-PCR in LNCaP cells treated with MG132 and HDAC inhibitors. The data set is classed as cell-based, human. Conditions: 10 hrs; for MG132-mediated upregulation of representative PSM genes: MG132 1 μM + TSA 1 μM or MG132 1 μM + SAHA 1 μM; for steady-state PSM gene expression: TSA 1 μM or SAHA 5 μM alone. Here is the method:
as §1
(§3) RNA was isolated using the RNeasy kit (Qiagen). cDNA was prepared using the Superscript III first strand synthesis kit (Invitrogen) according to the manufacturer's recommendations. Quantitative PCR (qPCR) was performed using the SYBR GreenER supermix (Invitrogen).

The next data set deals with MDA-MB-231 cells. Nature of the data set: Cell-titer glo cell viability, MG132 combined with TSA or SAHA. In kind it is cell-based, human. As to conditions: MDA-MB-231, MG132 5 μM combined with TSA or SAHA, 48 hrs. The protocol: as §1
Cells in 96-well plates were treated with different agents as required and cell viability was assessed using the Cell-Titer Glo kit (G7572; Promega) according to the protocol recommended by the manufacturer. By employing a luminescence read-out, this kit quantifies the level of ATP which is proportional to the number of viable cells.

For data set [2] the following is noted: after administration; cited from earlier work.
Data set [3] has as its system PSM genes (PSMA7, PSMB4, PSMB7, PSMC1, PSMC4, PSMD1, PSMD12). Briefly: mRNA levels of representative PSM genes by quantitative RT-PCR in LNCaP and HT-29 cells treated with proteasome inhibitors or MLN4924. As to conditions: 10 hrs, normalized to GAPDH, DMSO set to 1. In kind it is cell-based, human. The protocol: The human prostate cancer LNCaP and colon cancer HT29 cell lines were incubated with different proteasome inhibitors (MG132, YU101, and bortezomib) or the Nedd8 pathway inhibitor MLN4924 (Soucy et al., 2009, Nature, 458, 732-736). Prostate cancer LNCaP and colon cancer HT-29 cells were treated with the indicated concentrations of proteasome inhibitors (MG132, YU101, and Bortezomib) or the Nedd8 pathway inhibitor (MLN4924) for 10 hrs, and mRNA levels of representative PSM genes were analyzed by quantitative RT-PCR (FIGS. 1A-1C). The values were normalized to GAPDH and for each cell line the DMSO treated sample was set to 1. Error bars denote SD (n=3). […] MLN4924 works by inhibiting the Nedd8-activating enzyme, the result of which is the accumulation of cullin-RING ligase (CRL) substrates (Soucy et al., 2009).
as §3

Data set [4] addresses T1, proteasome (chymotryptic site) (Homo sapiens, UniProt P20618+P28074).
T1 construct: endogenous in cells; host or cells: HT29 human colon cancer cells, treated intact; activity measured in freeze-thaw lysate
Briefly: Proteasome activity recovery assay in HT29 cells after drug wash-out. The data set is classed as cell-based. As to conditions: HT-29; HT29, 1 hr; MG132 2 μM, YU101 100 nM, Bortezomib 40 nM. Here is the method: Cells were frozen at different time points as indicated and were used for proteasome activity assays as described herein. For each time point, the results are normalized to DMSO-treated control in the case of hatched lines and to CHX-treated control in the case of solid lines. Error bars denote SD (n=3). […] The results were normalized to DMSO-treated control for each cell type. Error bars denote S.E.M. (n=2). […] The next day, the cells were treated with indicated concentrations of YU101 and the pan-caspase inhibitor Z-VAD-FMK, and further incubated for 72 hrs. The cell viability was then assessed using the CellTiter-Glo method (FIG. 12A). The results were normalized to DMSO-treated control which was set to 100% in each case. Error bars denote S.E.M. (n=2). […] The cell lysates were used for immunoblotting to detect the levels of Nrf1 (with the antibody raised against N-terminus) and cleaved caspase-3. β-actin protein levels were used as loading control. […] The cells were then washed with PBS thrice and allowed to recover in fresh medium. At definite time points, the cells were freeze-thawed in TE buffer (20 mM Tris pH 8, 5 mM EDTA) and subsequently used for measuring proteasome activity as described previously (Demo et al., 2007).

Another data set concerns PSMA4 ARE. Nature of the data set: 3×PSMA4-ARE-Luc / 3×PSMA4-mutARE-Luc luciferase assay in LNCaP cells. The data set is classed as cell-based, human. Conditions: LNCaP. Here is the method:
Sequence alignment of the genomic region close to the transcription start site (indicated by +1) of the PSMB6 gene in mouse and human. The putative ARE sequences and the start codon are marked as shown (FIG. 6). WT and Nrf1^−/− MEFs were transfected with the PSMB6-Luc construct and 24 hrs post-transfection, the cells were treated with the indicated concentration of MG132 for 12 hrs after which luciferase assays were performed as described herein (FIG. 7). Error bars denote SD (n=3). […] LNCaP cells were transiently transfected with the indicated reporter constructs along with either a vector control or Flag-Nrf1 expression construct. Forty-eight hours (hrs) after transfection, the cells were further incubated with the indicated concentration of MG132 for 12 hrs after which luciferase assays were performed as described herein (FIG. 9). Error bars denote SD (n=3).
as §2

For `O=C(CCCCCCC(=O)Nc1ccccc1)NO` [SAHA, suberoylanilide hydroxamic acid], the “luciferase activity (8×ARE reporter) in combination with MG132” value in data set [1] is recorded as “basal levels of luciferase activity were observed”. In the data set on PSM genes, the “MG132-mediated upregulation of representative PSM genes” value is “reproducibly inhibited the MG132-mediated upregulation of representative PSM genes” and the “steady-state PSM gene expression” value is “little effect on steady-state PSM gene expression”. In the data set with MDA-MB-231 cells, the “apoptosis / cell viability in combination with MG132” value is reported as “enhanced apoptosis (decreased viability)”.
For the molecule `CC(/C=C/C(=O)NO)=C\[C@@H](C)C(=O)c1ccc(N(C)C)cc1` [TSA, trichostatin A], in data set [1], the “luciferase activity (8×ARE reporter) in combination with MG132” value is “basal levels of luciferase activity were observed”. Moreover, in the data set with PSM genes, the “MG132-mediated upregulation of representative PSM genes” value was “reproducibly inhibited the MG132-mediated upregulation of representative PSM genes” and the “steady-state PSM gene expression” value is on record as “little effect on steady-state PSM gene expression”. In the data set with MDA-MB-231 cells, the “apoptosis / cell viability in combination with MG132” value is “enhanced apoptosis (decreased viability)”.
Take `CC(C)C[C@H](NC(=O)[C@H](Cc1ccccc1)NC(=O)c1cnccn1)B(O)O` [bortezomib]: in data set [2], the “clearance from the patients' blood” value is “rapidly cleared from the patients' blood within the first hour”. Further, the “mRNA levels of PSM genes” value in data set [3] is recorded as “robustly induce mRNA levels of several PSM genes”. In data set [4], this molecule registered an inhibition at 0.04 µM of 80 to 90%.
As to `CC(C)C[C@H](NC(=O)[C@H](CCc1ccccc1)NC(=O)CN1CCOCC1)C(=O)N[C@@H](Cc1ccccc1)C(=O)N[C@@H](CC(C)C)C(=O)[C@@]1(C)CO1` [carfilzomib], the “clearance from the patients' blood” value in data set [2] is reported as “rapidly cleared from the patients' blood within the first hour”.

B1: Flag-Nrf1: human Nrf1 with N-terminal 3×FLAG tag, expressed from pMSCV-hyg retroviral vector (protein, UniProt Q14494 1-772, looked up)
Endoplasmic reticulum …: MLSLKKYLTEGLLQFTILLSLIGVRVDVDTYLTSQLPPLREIILGPSSAYTQTQFHNLRNTLDGYGIHPKSIDLDNYFTARRLLSQVRALDRFQVPTTEVNAWLVHRDPEGSVSGSQPNSGLALESSSGLQDVTGPDNGVRESETEQGFGEDLEDLGAVAPPVSGDLTKEDIDLIDILWRQDIDLGAGREVFDYSHRQKEQDVEKELRDGGEQDTWAGEGAEALARNLLVDGETGESFPAQVPSGEDQTALSLEECLRLLEATCPFGENAEFPADISSITEAVPSESEPPALQNNLLSPLLTGTESPFDLEQQWQDLMSIMEMQAMEVNTSASEILYSAPPGDPLSTNYSLAPNTPINQNVSLHQASLGGCSQDFLLFSPEVESLPVASSSTLLPLAPSNSTSLNSTFGSTNLTGLFFPPQLNGTANDTAGPELPDPLGGLLDEAMLDEISLMDLAIEEGFNPVQASQLEEEFDSDSGLSLDSSHSPSSLSSSEGSSSSSSSSSSSSSSASSSASSSFSEEGAVGYSSDSETLDLEEAEGAVGYQPEYSKFCRMSYQDPAQLSCLPYLEHVGHNHTYNMAPSALDSADLPPPSALKKGSKEKQADFLDKQMSRDEHRARAMKIPFTNDKIINLPVEEFNELLSKYQLSEAQLSLIRDIRRRGKNKMAAQNCRKRKLDTILNLERDVEDLQRDKARLLREKVEFLRSLRQMKQKVQSLYQEVFGRLRDENGRPYSPSQYALQYAGDGSVLLIPRTMADQQARRQERKPKDRRK
modifications: N-terminal 3xFLAG tag
notes: human Nrf1 with N-terminal 3×FLAG tag, expressed from pMSCV-hyg retroviral vector
With B1, in the data set with PSMA4 ARE (mutated AREs), the “luciferase activity (3×PSMA4-mutARE-Luc, AREs mutated)” value is on record as “neither MG132 nor overexpressed Flag-Nrf1 induced the synthetic promoter construct”. Also, in the data set with PSMA4 ARE (versus DMSO-treated / vector control, MG132 12 hrs), the “luciferase activity (3×PSMA4-ARE-Luc)” value is recorded as “activated this synthetic promoter construct”.
